Measured values reported in publication PMC2362731, “Phase I study of Carzelesin (U-80,244) given (4-weekly) by intravenous bolus schedule” (British Journal of Cancer, 1999).

Tests used:
[1] = tested on: solid tumours; assay: Antitumour activity (WHO response criteria); type: in vivo, human; settings: 51 patients, eight not evaluable
Excerpt: Carzelesin (U-80,244, Figure 1A) is a cyclopropylpyrroloindole (CPI) prodrug analogue of CC-1065. […] CPI drugs are a class of compounds with unique DNA interactive properties. These agents fit into the minor groove region of DNA, and the CPI function in the molecule mediates a covalent binding to the N3 position of adenine in A-T rich regions, thus forming DNA adducts in a sequence selective fashion (Hurley et al, 1984; Reynolds et al, 1985). Three new CPIs have now been developed. […] Bizelesin differs from the classical CPI drugs in that it contains two chloromethyl functions, which are both converted (via intramolecular rearrangements) to the CPI alkyl- ating species that interact with DNA. Consequently, this agent is capable of forming DNA interstrand cross-links (Lee et al, 1991). […] Therefore, efforts were directed to modu- late the alkylation rate by the preparation of CPI prodrugs that would require chemical or enzymatic conversion. The activation of Carzelesin is a two-step reaction with hydrolysis of the phenyl- urethane substituent to form the intermediate compound U-76,073, followed by ring closure to form the active product U-76,074 (Figure 1B). […] The concentration of U-76,074 (active metabolite) extended above the lower limit of quantitation (1 ng ml-1) for short periods of time and only at the higher dose levels. […]

[2] = tested on: bone marrow, kidney, liver and spleen; parameters: method as in EORTC-NDDO, 1992; settings: ref EORTC-NDDO, 1992; cited from earlier work
[3] = tested on: murine and human tumour xenografts; settings: ref Li et al, 1992, cited from earlier work

## CCN(CC)c1ccc2cc(C(=O)Nc3ccc4[nH]c(C(=O)N5C[C@@H](CCl)c6c5cc(OC(=O)Nc5ccccc5)c5[nH]cc(C)c65)cc4c3)oc2c1 [Carzelesin]
[1]
  patients with progressive disease as best overall response: Thirty-four patients
  patients with stable disease as best overall response: nine patients
[2]
  organs in which toxicity occurred in preclinical studies: bone marrow, kidney, liver and spleen
[3]; compared with adozelesin
  efficacy in a broad panel of murine and human tumour xenografts: more efficacious
[3]; Houghton et al, 1995
  efficacy against Lewis lung carcinoma, B16 melanoma, colon 38 carcinoma, colon CX1 adenocarcinoma, lung LX-1 tumour, ovarian 2780 and prostatic DU-145 carcinoma: highly effective
